According to patent publication US20240352046A1, “ECTONUCLEOTIDE PYROPHOSPHATASE-PHOSPHODIESTERASE-1 (ENPP1) INHIBITORS AND USES THEREOF” (1cBio, Inc., priority 2020, published 2024):

What follows are molecules tested against ENPP-1 (Ectonucleotide Pyrophosphatase/Phosphodiesterase 1) (Homo sapiens (Human), UniProt P22413) (assay: ENPP1 inhibition assay (AMP Glo, cGAMP substrate)). Details: cGAMP 20 μM substrate, ENPP1 1 nM.
Assay type: biochemical
Procedure: IC50 values of compounds against ENPP-1 (Ectonucleotide Pyrophosphatase/Phosphodiesterase 1) were determined at Integral BioSciences (India) using AMP Glo (Promega, Cat #V5011). Assay was performed in a 30 μL final volume in a white 96-well Half Area plate (Costar,Cat #3693). Dose response curve for the compounds were prepared in duplicates with starting conc. at 5 μM and a three-fold titration was performed. The reaction buffer consisted of 50 mM Tris (pH 8.0), 0.5 mM CaCl2), 1 μM ZnCl2, 250 mM NaCl and 0.1 mg/ml BSA. To the compound dilution, 15 μL of ENPP1 enzyme (R&D Systems; Cat #6136-EN-010) was added to each well (final conc. 1 nM) and the mix was pre-incubated for 15 min at RT. An equal volume (15 μL) containing cGAMP (Sigma, Cat #SML-1229) (final conc. 20 μM) was added to initiate the enzyme reaction and the reaction was incubated for 30 min at RT. The reaction was then stopped by heating at 90° C. for 3 minutes. 10 μl of reaction was then transferred to 384 well white, medium binding plates (Grenier, Cat #781075) to which 10 μl of AMP-Glo Reagent 1 was added and mixed well and incubated for 1 hour at 25° C. Following 60 min incubation, 20 μL of detection mixture was added to the enzyme reaction bringing the final volume to 40 μL. The reaction was further incubated for 60 min at RT after which the plates were read using BioTek Plate reader.
Analysis was done using the standard curve by non-linear regression, variable slope inhibitor curve fits (Graph-Pad Prism) and IC50's of compounds were determined wherever possible.

Sequence of ENPP-1 (Ectonucleotide Pyrophosphatase/Phosphodiesterase 1) (P22413 whole entry): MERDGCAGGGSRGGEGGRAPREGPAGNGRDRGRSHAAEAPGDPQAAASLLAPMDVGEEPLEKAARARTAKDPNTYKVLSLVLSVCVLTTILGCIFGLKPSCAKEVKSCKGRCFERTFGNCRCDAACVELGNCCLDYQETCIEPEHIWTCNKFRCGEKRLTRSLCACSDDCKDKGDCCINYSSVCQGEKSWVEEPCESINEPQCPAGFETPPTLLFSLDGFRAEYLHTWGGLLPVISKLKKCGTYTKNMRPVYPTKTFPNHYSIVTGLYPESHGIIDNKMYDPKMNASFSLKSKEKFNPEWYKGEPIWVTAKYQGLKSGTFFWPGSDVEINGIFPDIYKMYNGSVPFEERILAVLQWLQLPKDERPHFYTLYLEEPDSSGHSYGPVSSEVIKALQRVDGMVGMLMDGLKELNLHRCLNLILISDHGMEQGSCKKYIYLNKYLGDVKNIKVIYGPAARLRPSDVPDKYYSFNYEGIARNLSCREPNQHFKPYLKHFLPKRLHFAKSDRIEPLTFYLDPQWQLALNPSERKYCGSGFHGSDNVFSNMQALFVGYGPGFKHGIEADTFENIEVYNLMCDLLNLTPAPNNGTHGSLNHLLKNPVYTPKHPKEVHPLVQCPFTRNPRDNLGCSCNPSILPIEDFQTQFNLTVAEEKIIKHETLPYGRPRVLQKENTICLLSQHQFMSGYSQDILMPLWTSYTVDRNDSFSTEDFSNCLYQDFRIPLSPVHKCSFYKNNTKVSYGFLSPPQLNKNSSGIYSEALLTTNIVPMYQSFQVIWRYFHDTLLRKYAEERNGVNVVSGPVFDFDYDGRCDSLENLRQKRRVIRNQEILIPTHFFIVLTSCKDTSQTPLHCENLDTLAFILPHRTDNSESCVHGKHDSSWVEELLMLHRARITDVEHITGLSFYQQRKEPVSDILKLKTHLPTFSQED

Row | IC50 [µM] | Compound
1 | 0.036 | COc1cc2ncnc(N3CC(/C=C/S(N)(=O)=O)C3)c2cc1OC [Compound 1.55, (E)-2-(1-(6,7-dimethoxyquinazolin-4-yl)azetidin-3-yl)ethenesulfonamide]
2 | 0.085 | COc1ccc2c(N3CC(CCCS(N)(=O)=O)C3)ncnc2c1 [Compound 1.56, 3-(1-(7-methoxyquinazolin-4-yl)azetidin-3-yl)propane-1-sulfonamide]
3 | 0.067 | Cc1ccn2ncnc(N3CC4(CC(NS(N)(=O)=O)C4)C3)c12 [Compound 1.62]
4 | 0.003 | COc1cc2nncc(N3CC4(CC(N(C)S(N)(=O)=O)C4)C3)c2cc1OC [Compound 1.68, 4(6-N-methylsulfamoylamino)-2-azaspiro[3.3]heptan-2-yl-6,7-dimethoxycinnoline]
5 | > 3 | Cc1c(Br)cn2ncnc(N3CC(CCNS(N)(=O)=O)C3)c12 [Compound 1.72, 4-(3-(2-sulfamoylaminoethyl)azetidine-1-yl)-6-bromo-5-methylpyrrolo[1,2-f][1,2,4]triazine]
6 | 0.247 | Cc1ccn2ncnc(N3CC4(CC(N(C)S(N)(=O)=O)C4)C3)c12 [Compound 1.73]
7 | 0.391 | Cc1c(Cl)cn2ncnc(N3CC4(CC(N(C)S(N)(=O)=O)C4)C3)c12 [Compound 1.75, N-[2-(6-chloro-5-methylpyrrolo[2,1-f][1,2,4]triazin-4-yl)-2-azaspiro[3.3]hept-6-yl]-N-methylsulfuric diamide]
8 | 0.295 | Cc1cc(C)n2ncnc(N3CC4(CC(N(C)S(N)(=O)=O)C4)C3)c12 [Compound 1.77, N-(2-(5,7-dimethylpyrrolo[1,2-f][1,2,4]triazin-4-yl)-2-azaspiro[3.3]heptan-6-yl)-N-methylsulfamide]
9 | 0.964 | Cc1c(C#N)cn2ncnc(N3CC4(CC(N(C)S(N)(=O)=O)C4)C3)c12 [Compound 1.78, N-(2-(6-cyano-5-methylpyrrolo[1,2-f][1,2,4]triazin-4-yl)-2-azaspiro[3.3]heptan-6-yl)-N-methylsulfamamide]
10 | 0.053 | Cc1cc(Br)n2ncnc(N3CC4(CC(N(C)S(N)(=O)=O)C4)C3)c12 [Compound 1.79, N-(2-(7-bromo-5-methylpyrrolo[1,2-f][1,2,4]triazin-4-yl)-2-azaspiro[3.3]heptan-6-yl)-N-methylsulfamamide]
11 | 0.616 | Cc1cc(F)n2ncnc(N3CC4(CC(N(C)S(N)(=O)=O)C4)C3)c12 [Compound 1.80, N-(2-(7-fluoro-5-methylpyrrolo[1,2-f][1,2,4]triazin-4-yl)-2-azaspiro[3.3]heptan-6-yl)-N-methylsulfamamide]
12 | 0.245 | Cc1cc(Cl)n2ncnc(N3CC4(CC(N(C5CC5)S(N)(=O)=O)C4)C3)c12 [Compound 1.81, N-(2-(7-chloro-5-methylpyrrolo[2,1-f][1,2,4]triazin-4-yl)-2-azaspiro[3.3]heptan-6-yl)-N-cyclopropylsulfamamide]
13 | 1.89 | Cc1cc(Cl)n2ncnc(N3CC4(CC(N(C(C)C)S(N)(=O)=O)C4)C3)c12 [Compound 1.82, N-(2-(7-chloro-5-methylpyrrolo[2,1-f][1,2,4]triazin-4-yl)-2-azaspiro[3.3]heptan-6-yl)-N-isopropylsulfamamide]

Row | Compound | IC50 [µM]
14 | COc1cc2ncnc(N3CC(CCNS(N)(=O)=O)(c4ccccc4)C3)c2cc1OC [Compound 1.58, 4-3-(2-(sulfamoylamino)ethyl)-3-phenylazetidin-1-yl-6,7-dimethoxyquinazoline] | 0.66
15 | Cc1ccn2ncnc(N3CC(CCB(O)O)C3)c12 [Compound 1.59, 2-(1-(5-methylpyrrolo[1,2-f][1,2,4]triazin-4-yl)azetidin-3-yl)ethylboronic acid] | > 3
16 | CCc1nc(N2CC(CCNS(N)(=O)=O)C2)c2cc(OC)c(OC)cc2n1 [Compound 1.61, 2-ethyl-6,7-dimethoxy-4-[3-[2-(sulfamoylamino)ethyl]azetidin-1-yl]quinazoline] | 0.097
17 | COc1cc2ncnc(N3CC(CCCS(=O)(=O)O)C3)c2cc1OC [Compound 1.65, 3-(1-(6,7-dimethoxyquinazolin-4-yl)azetidin-3-yl)propane-1-sulfonic acid] | 0.078
